Measured values from US12679832B2, “Compounds and their uses as CD38 inhibitors” (Nanjing Immunophage Biotech Co., Ltd., priority 2021, dated 2026).

Biological target: T1, hCD38 Enzyme (Homo sapiens, UniProt P28907)
T1 construct: purchased Sino Biological Inc 10818-H08H
T1 sequence (P28907 43-300 limits assumed): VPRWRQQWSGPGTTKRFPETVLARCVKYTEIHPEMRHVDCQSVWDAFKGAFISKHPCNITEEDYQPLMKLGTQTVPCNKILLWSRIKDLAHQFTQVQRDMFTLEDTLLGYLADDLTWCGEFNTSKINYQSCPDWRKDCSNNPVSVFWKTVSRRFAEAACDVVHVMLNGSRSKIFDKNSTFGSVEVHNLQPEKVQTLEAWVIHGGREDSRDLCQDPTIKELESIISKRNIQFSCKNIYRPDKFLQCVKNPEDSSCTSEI
Test: CD38 hydrolase enzymatic assay
Type: biochemical
Conditions: rhCD38, ε-NAD substrate, 25° C., point reading time 20 mins; read-out: hCD38 Enzyme inhibition IC50

Compound	IC50 [nM]
O=C(Nc1ccc(F)c(F)c1)c1cc(C(F)(F)F)nc(-n2ccnc2)n1 [compound 173, N-(3,4-difluorophenyl)-2-(1H-imidazol-1-yl)-6-(trifluoromethyl) pyrimidine-4-carboxamide]	6.8
O=C(Nc1cc(F)cc(N2CCNCC2)c1)c1cc(C(F)(F)F)nc(-n2ccnc2)n1 [compound 175, N-(3-fluoro-5-(piperazin-1-yl)phenyl)-2-(1H-imidazol-1-yl)-6-(trifluoromethyl) pyrimidine-4-carboxamide]	68
O=C(Nc1cc(F)cc(N2CC[C@H](O)C2)c1)c1cc(C(F)(F)F)nc(-n2ccnc2)n1 [compound 178, (S)-N-(3-fluoro-5-(3-hydroxypyrrolidin-1-yl)phenyl)-2-(1H-imidazol-1-yl)-6-(trifluoromethyl) pyrimidine-4-carboxamide]	17.3
CO[C@H]1CC[C@H](NC(=O)c2cc(-c3ccncc3)nc(-n3ccnc3)n2)CC1 [compound 183, 2-(1H-imidazol-1-yl)-N-((1r,4r)-4-methoxycyclohexyl)-6-(pyridin-4-yl) pyrimidine-4-carboxamide]	28
N#Cc1cc(C(=O)Nc2cccc(F)c2)nc(-n2ccnc2)n1 [compound 185, 6-cyano-N-(3-fluorophenyl)-2-(1H-imidazol-1-yl) pyrimidine-4-carboxamide]	2
N#Cc1cc(C(=O)Nc2cccnc2)nc(-n2ccnc2)n1 [compound 186, 6-cyano-2-(1H-imidazol-1-yl)-N-(pyridin-3-yl)pyrimidine-4-carboxamide]	2
N#Cc1cc(C(=O)Nc2cncnc2)nc(-n2ccnc2)n1 [compound 189, 6-cyano-2-(1H-imidazol-1-yl)-N-(pyrimidin-5-yl)pyrimidine-4-carboxamide]	12
O=C(Nc1cccnc1)c1cc(C(F)(F)F)cc(-n2ccnc2)n1 [compound 191, 6-(1H-imidazol-1-yl)-N-(pyridin-3-yl)-4-(trifluoromethyl) picolinamide]	3.8
O=C(Nc1cncnc1)c1cc(C(F)(F)F)cc(-n2ccnc2)n1 [compound 192, 6-(1H-imidazol-1-yl)-N-(pyrimidin-5-yl)-4-(trifluoromethyl) picolinamide]	6.1
O=C(Nc1cnc(OCCO)nc1)c1cc(C(F)(F)F)nc(-n2ccnc2)n1 [compound 193, N-(2-(2-hydroxyethoxy)pyrimidin-5-yl)-2-(1H-imidazol-1-yl)-6-(trifluoromethyl) pyrimidine-4-carboxamide]	11
O=C(O)COc1ncc(NC(=O)c2cc(C(F)(F)F)nc(-n3ccnc3)n2)cn1 [compound 194, 2-((5-(2-(1H-imidazol-1-yl)-6-(trifluoromethyl)pyrimidine-4-carboxamido)pyrimidin-2-yl)oxy) acetic acid]	30

Next, values leading:

IC50 [nM]	Compound
5.4	O=C(Nc1cc(F)cc(F)c1)c1cc(C(F)(F)F)nc(-n2ccnc2)n1 [compound 174, N-(3,5-difluorophenyl)-2-(1H-imidazol-1-yl)-6-(trifluoromethyl) pyrimidine-4-carboxamide]
20	O=C(Nc1cc(F)cc(N2CCOCC2)c1)c1cc(C(F)(F)F)nc(-n2ccnc2)n1 [compound 176, N-(3-fluoro-5-morpholinophenyl)-2-(1H-imidazol-1-yl)-6-(trifluoromethyl) pyrimidine-4-carboxamide]
38	O=C(Nc1cccc(N2CCOCC2)c1)c1cc(C(F)(F)F)nc(-n2ccnc2)n1 [compound 177, 2-(1H-imidazol-1-yl)-N-(3-morpholinophenyl)-6-(trifluoromethyl) pyrimidine-4-carboxamide]
586	COC(C)(C)c1cc(F)cc(NC(=O)c2cc(C(F)(F)F)nc(-n3ccnc3)n2)c1 [compound 179, N-(3-fluoro-5-(2-methoxypropan-2-yl)phenyl)-2-(1H-imidazol-1-yl)-6-(trifluoromethyl) pyrimidine-4-carboxamide]
25.4	CN(C)CCOc1cc(F)cc(NC(=O)c2cc(C(F)(F)F)nc(-n3ccnc3)n2)c1 [compound 181, N-(3-(2-(dimethylamino)ethoxy)-5-fluorophenyl)-2-(1H-imidazol-1-yl)-6-(trifluoromethyl) pyrimidine-4-carboxamide]
2	N#Cc1cc(C(=O)Nc2ccc(F)cc2)nc(-n2ccnc2)n1 [compound 187, 6-cyano-N-(4-fluorophenyl)-2-(1H-imidazol-1-yl)pyrimidine-4-carboxamide]
2.8	O=C(Nc1ccncc1)c1cc(C(F)(F)F)cc(-n2ccnc2)n1 [compound 190, 6-(1H-imidazol-1-yl)-N-(pyridin-4-yl)-4-(trifluoromethyl) picolinamide]
